Read-outs that look alike come from different tables or passages of the source.

The target of the assay is recombinant eIF4E (Homo sapiens (Human), UniProt P06730). As to the kind of experiment: Fluorescence polarization competition assay for eIF4E binding potency. In outline:
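Competitive displacement format: compounds compete with a fluorescent m7GDP tracer (20 nM) for 75 nM recombinant eIF4E. Incubation is 30 min at room temperature, protected from light, with 1% DMSO. Polarization read gives IC50 over eight 3-fold concentrations.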

[1] abbreviates: fluorescence polarization competition, 75 nM recombinant eIF4E, 20 nM EDA-m7GDP-ATTO-550, IC50 class, read-out: elF4E FP.
Setting [2] is: inhibition of eIF4E/EDA-m7GDP-ATTO-550 binding by 50%, Table 4B calculated values, read-out: IC50.
Where [3] appears, read: inhibition of eIF4E/EDA-m7GDP-ATTO-550 binding, calculated IC50 values, Table 4B, read-out: IC50.

recombinant eIF4E, sequence (P06730 whole entry): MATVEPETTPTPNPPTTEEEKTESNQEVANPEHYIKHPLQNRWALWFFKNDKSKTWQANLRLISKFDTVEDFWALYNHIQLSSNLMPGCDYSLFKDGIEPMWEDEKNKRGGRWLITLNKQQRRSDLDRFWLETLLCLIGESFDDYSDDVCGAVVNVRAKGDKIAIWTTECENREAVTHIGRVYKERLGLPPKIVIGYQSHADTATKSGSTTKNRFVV

Take `Cc1cc(-c2cc(Cl)ccc2OCCn2c(C)nc3cc(CN(C)C)c(C(F)(F)F)c(C#N)c3c2=O)c2scc(C(=O)O)c2n1` [compound 635]: the IC50 by setting is: under setting [1], less than 50 nM; under setting [2], 10.6 nM.

Take `Cc1nc2cnc(N(C)C3CCN(C4CC(F)(F)C4)CC3)c(C#N)c2c(=O)n1CC#Cc1ccc(Cl)cc1-c1ccnc2c(C(=O)NS(=O)(=O)CCC#N)csc12` [compound 1826]: the IC50 under setting [3] is 18.4 nM.

For `Cc1cc(-c2cc(Cl)ccc2OCCn2c(C)nc3cc(C(F)(F)F)c(N4CCN(C)CC4)nc3c2=O)c2sc(C)c(C(=O)O)c2n1` [compound 1096], the IC50 by setting is: under setting [1], less than 50 nM; under setting [2], 33.5 nM.

Turning to `Cc1nc2cc(C(F)(F)F)c(N3CCN(CC(F)F)CC3)nc2c(=O)n1CC#Cc1ccc(Cl)cc1-c1ccnc2c(C(=O)O)csc12` [compound 1290], the IC50 under setting [3] was 149 nM.

With `Cc1nc2cc(S(C)(=O)=O)c(N3CCN(C)CC3)c(C#N)c2c(=O)n1CCOc1ccc(Cl)cc1-c1ccnc2c(C(=O)O)csc12` [compound 1296], the IC50 under setting [3] was 27 nM.

Take `Cc1cc(-c2cc(Cl)ccc2OCCn2c(C)nc3cc(Cl)c(N4CCC(F)(F)C4)c(C#N)c3c2=O)c2scc(C(=O)O)c2n1` [compound 690]: the IC50 was less than 50 nM under setting [1] and 5.95 nM under setting [2].

As for `Cc1nc2cnc(N3CCN(C4(C)CC4)CC3)c(C#N)c2c(=O)n1CCOc1ccc(Cl)cc1-c1ccnc2c(C(=O)O)csc12` [compound 1365], the IC50 under setting [3] was 34.1 nM.

`Cc1nc2cc(C(N)=O)cc(C#N)c2c(=O)n1CCOc1ccc(Cl)cc1-c1ccnc2c(C(=O)O)csc12` [compound 317]: the IC50 is less than 50 nM under setting [1] and 17.1 nM under setting [2].

On to `Cc1nc2cnc(N3CCC4(CC3)CN(CC(F)F)C4)c(C#N)c2c(=O)n1CC#Cc1ccc(Cl)cc1-c1ccnc2c(C(=O)NS(=O)(=O)C3COC3)csc12` [compound 1408], for which, under setting [3], the IC50 was 17.6 nM.

In the case of `Cc1nc2c(S(C)(=O)=O)ccc(C#N)c2c(=O)n1CCOc1ccc(Cl)cc1-c1ccnc2c(C(=O)O)csc12` [compound 229], the IC50 was less than 50 nM under setting [1] and 22.2 nM under setting [2].

As to `Cc1sc2c(-c3cc(Cl)ccc3OCCn3cnc4cc(C(F)(F)F)c(CN(C)C)c(C#N)c4c3=O)ccnc2c1C(=O)O` [compound 641], the IC50 by setting is: under setting [1], less than 50 nM; under setting [2], 33.3 nM.

On to `C#Cc1ccc(C#N)c2c(=O)n(CCOc3ccc(Cl)cc3-c3ccnc4c(C(=O)O)csc34)c(C)nc12` [compound 211], for which the IC50 by setting is: under setting [1], less than 50 nM; under setting [2], 35.4 nM.

In the case of `CCN(c1ncc2nc(C)n(CC#Cc3ccc(Cl)cc3-c3ccnc4c(C(=O)NS(=O)(=O)C5CC(F)(F)C5)csc34)c(=O)c2c1C#N)C1CCN(C2COC2)CC1` [compound 1739], the IC50 under setting [3] is 33.3 nM.

With `Cc1nc2cnc(N(C)C3CCN(CC4(C(F)(F)F)CCO4)CC3)c(C#N)c2c(=O)n1CC#Cc1ccc(Cl)cc1-c1ccnc2c(C(=O)O)csc12` (centres unmarked) [compound 1717], the IC50 under setting [3] was 13.4 nM.

Turning to `Cc1cc(-c2cc(Cl)ccc2OCCn2c(C)nc3cc(C(F)(F)F)c(-c4cnccc4C)c(C#N)c3c2=O)c2scc(C(=O)O)c2n1` [compound 736], the IC50 reads like this: under setting [1], less than 50 nM; under setting [2], 17 nM.

Turning to `Cc1cc(-c2cc(Cl)ccc2OCCn2c(C)nc3cnc(C4CCC4)c(C#N)c3c2=O)c2scc(C(=O)O)c2n1` [compound 912], the IC50 is less than 50 nM under setting [1] and 8.98 nM under setting [2].

`Cc1cc(-c2cc(Cl)ccc2OCCn2c(C)nc3cnc(N4CCN(C)CC4)c(C#N)c3c2=O)c2sc(C)c(C(=O)O)c2n1` [compound 1418]: the IC50 under setting [3] was 9.1 nM.

With `N#Cc1cccc2c(=O)n(CCOc3ccc(Cl)cc3-c3cccc(C(=O)O)c3)cnc12` [compound 75], the IC50 is, setting by setting: under setting [1], more than 1000 nM; under setting [2], 1400 nM.

In the case of `Cc1cc(-c2cc(Cl)ccc2OCCn2c(C)nc3cnc(N4CCC4)c(C#N)c3c2=O)c2scc(C(=O)O)c2n1` [compound 435], the IC50 is, setting by setting: under setting [1], less than 50 nM; under setting [2], 16.7 nM.

Turning to `Cc1c([N+](=O)O)c2cc(C(F)(F)F)cc(C#N)c2c(=O)n1CCOc1ccc(Cl)cc1-c1ccnc2c(C(=O)O)csc12` [compound 270], the IC50 under setting [1] is less than 50 nM.

On to `Cc1nc2cc(C(F)(F)F)cc(C#N)c2c(=O)n1CCOc1ccc(Cl)cc1-c1cc(CCN)nc2c(C(=O)O)csc12` [compound 1374], for which the IC50 under setting [3] is 56.1 nM.

For the compound `Cc1nc2cc(C(F)(F)F)cc(C#N)c2c(=O)n1CCOc1ccc(Cl)cc1-c1cc(C(F)F)nc2c(C(=O)O)csc12` [compound 563], the IC50 was less than 50 nM under setting [1] and 14.4 nM under setting [2].

For `Cc1cc(-c2nc3c(=O)n(CCOc4ccc(Cl)cc4-c4cc(C)nc5c(C(=O)O)csc45)c(C)nc3cc2C(F)(F)F)ccn1` [compound 463], the IC50 runs as follows: under setting [1], less than 50 nM; under setting [2], 8.86 nM.

With `N#Cc1cc(C#N)c2c(=O)n(CCOc3ccc(Cl)cc3-c3cccc(C(=O)O)c3)cnc2c1` [compound 1989], under setting [3], the IC50 is 89 nM.

As to `Cc1cc(-c2cc(Cl)ccc2OCCn2c(C)nc3cc(C(F)(F)F)c(-c4ccncc4F)c(C#N)c3c2=O)c2scc(C(=O)O)c2n1` [compound 344], the IC50 is, setting by setting: under setting [1], less than 50 nM; under setting [2], 32.1 nM.

For the compound `COc1cc(C#N)c2c(=O)n(CCOc3ccc(Cl)cc3-c3ccnc4c(C(=O)O)csc34)c(C)nc2c1` [compound 405], the IC50 is less than 50 nM under setting [1] and 19.7 nM under setting [2].

For the compound `N#Cc1cc2c(=O)n(CCOc3ccc(Cl)cc3-c3cc(C(=O)O)ccc3C3CC3)cnc2cn1` [compound 92], the IC50 was more than 1000 nM under setting [1] and more than 3000 nM under setting [2].

As to `Cc1cc(-c2cc(Cl)ccc2OCCn2c(C)nc3ccc(CCN(C)C)c(C#N)c3c2=O)c2scc(C(=O)NS(C)(=O)=O)c2n1` [compound 1138], the IC50 by setting is: under setting [1], less than 50 nM; under setting [2], 23.7 nM.

As for `Cc1cc(-c2cc(Cl)ccc2OCCn2c(C)nc3cnc(-c4ccccc4F)c(C#N)c3c2=O)c2scc(C(=O)O)c2n1` [compound 941], the IC50 runs as follows: under setting [1], less than 50 nM; under setting [2], 20 nM.

`Cc1nc2cnc(N(C)C3CCN(CC(C)(F)F)CC3)c(C#N)c2c(=O)n1CC#Cc1ccc(Cl)cc1-c1ccnc2c(C(=O)NS(=O)(=O)c3cccnc3)csc12` [compound 1144]: the IC50 reads like this: under setting [1], less than 50 nM; under setting [2], 34.4 nM.

Consider `Cc1nc2cnc(N(C)C34CCC(N(C)CCF)(CC3)C4)c(C#N)c2c(=O)n1CC#Cc1ccc(Cl)cc1-c1ccnc2c(C(=O)O)csc12` [compound 1106], for which the IC50 reads like this: under setting [1], less than 50 nM; under setting [2], 17.4 nM.

`Cc1nc2cnc(N(C)C3CCN(C4CC(F)(F)C4)CC3)c(C#N)c2c(=O)n1CC#Cc1ccc(Cl)cc1-c1ccnc2c(C(=O)NS(=O)(=O)CF)csc12` [compound 1817]: the IC50 under setting [3] was 25.8 nM.

As for `C#Cc1cc2nccc(-c3cc(Cl)ccc3OCCn3c(C)nc4cc(C(F)(F)F)c(N5CCN(C)CC5)c(C#N)c4c3=O)c2s1` [compound 1244], the IC50 is less than 50 nM under setting [1] and 19.4 nM under setting [3].

As to `Cn1cc2c(C(=O)O)cc(-c3cc(Cl)ccc3OCCn3cnc4cnc(C#N)cc4c3=O)cc2n1` [compound 102], the IC50 under setting [1] was more than 1000 nM and the IC50 under setting [2] is 4820 nM.

On to `Cc1cc(-c2cc(Cl)ccc2OCCn2c(C)nc3cc(C(F)(F)F)c(-c4ccnc(C)c4F)c(C#N)c3c2=O)c2scc(C(=O)O)c2n1` [compound 472], for which the IC50 is, setting by setting: under setting [1], less than 50 nM; under setting [2], 23.6 nM.

Regarding `Cc1nc2cnc(N(C)C3CCN(C(c4ccn(C)n4)C(F)F)CC3)c(C#N)c2c(=O)n1CC#Cc1ccc(Cl)cc1-c1ccnc2c(C(=O)O)csc12` (centres unmarked) [compound 1537], the IC50 under setting [3] was 18.9 nM.

Consider `Cc1cc(-c2cc(Cl)ccc2OCCn2c(C)nc3cc(C(F)F)c(CN4CCN(C)CC4)c(C#N)c3c2=O)c2scc(C(=O)O)c2n1` [compound 646], for which the IC50 under setting [1] was less than 50 nM and the IC50 under setting [2] is 41.4 nM.

As to `CCN(c1ncc2nc(C)n(CC#Cc3ccc(Cl)cc3-c3ccnc4c(C(=O)NS(=O)(=O)c5ccncc5)csc34)c(=O)c2c1C#N)C1CCN(CC(F)(F)C(F)F)CC1` [compound 1708], under setting [3], the IC50 is 16.2 nM.

Turning to `Cc1cc(-c2cc(Cl)ccc2OCCn2c(C)nc3cnc([C@H]4C[C@@H](O)C4)c(C#N)c3c2=O)c2scc(C(=O)O)c2n1` [compound 1194], the IC50 is less than 50 nM under setting [1] and 15.3 nM under setting [3].

For the compound `Cc1nc2cnc(N(C)[C@@H]3C[C@@H]4CN(CC(F)F)C[C@@H]4C3)c(C#N)c2c(=O)n1CC#Cc1ccc(Cl)cc1-c1ccnc2c(C(=O)O)csc12` [compound 1531], the IC50 under setting [3] is 13.4 nM.

Take `Cc1cc(-c2cc(Cl)ccc2OCCn2c(C)nc3cnc(N4CC[C@@H](O)C4)c(C#N)c3c2=O)c2scc(C(=O)O)c2n1` [compound 883]: the IC50 under setting [1] was less than 50 nM and the IC50 under setting [2] is 12.8 nM.

On to `Cc1nc2cncc(C#N)c2c(=O)n1CCOc1ccc(Cl)cc1-c1ccc(C(=O)O)c(C(=O)O)c1` [compound 147], for which the IC50 is, setting by setting: under setting [1], less than 50 nM; under setting [2], 14.7 nM.

With `Cc1nc2cnc(S(=O)(=O)N3CCN(C)CC3)c(C#N)c2c(=O)n1CCOc1ccc(Cl)cc1-c1ccnc2c(C(=O)O)csc12` [compound 821], the IC50 by setting is: under setting [1], less than 50 nM; under setting [2], 14.2 nM.

On to `Cc1cc(-c2cc(Cl)ccc2OCCn2c(C)nc3cnc(C(C)F)c(C#N)c3c2=O)c2scc(C(=O)O)c2n1` (centres unmarked) [compound 1065], for which the IC50 reads like this: under setting [1], less than 50 nM; under setting [2], 18.6 nM.

For `O=C(O)c1cccc(-c2cc(Cl)ccc2OCCn2ccc3ccncc3c2=O)c1` [compound 6], the IC50 runs as follows: under setting [1], more than 1000 nM; under setting [2], 7390 nM.

Turning to `Cc1nc2cc(F)c(CN(C)C)c(C#N)c2c(=O)n1CCOc1ccc(Cl)cc1-c1ccnc2c(C(=O)O)csc12` [compound 311], the IC50 is 50 to 1000 nM under setting [1] and 55.5 nM under setting [2].
